Here are results for 14 compounds from patent US5760036A, “Aminediol protease inhibitors” (E. R. Squibb & Sons, Inc., priority 1995, dated 1998).

In experiment [1] the target is T1, HIV protease (Human immunodeficiency virus type 1 group M subtype B, UniProt P04585).
T1 construct: and purified protease
The experiment is described as follows: HIV Protease Assay. The format is biochemical. Put shortly:
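At a single final concentration of 10 μM (4% DMSO), inhibitors were added to a 30-minute, 37° C reaction of purified enzyme with 450 μM H2N-Val-Ser-Gln-Asn-(β-naphthyl-alanine)-Pro-Val-Ile-OH at pH 5.5 (sodium acetate, BSA). Hydrolysis was quantified by reverse-phase HPLC with 220 nm detection after acid quench.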

Experiment [2] has as its system RF strain of HIV (CEM-SS cells). The experiment is described as follows: Cell Culture Anti-HIV Activity (cell viability, formazan). Format: cell-based. The following applies: Human immunodeficiency virus 1, CEM-SS, 144 h, CEM-SS cells, RF strain of HIV, multiplicity of infection 0.04, 6 days at 37° C., 450 nm; read-out: HIV (CEM Cells) IC50. The essentials:
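Half-log compound dilutions added to CEM-SS cells (5000/well) carrying HIV RF (MOI 0.04), 6 days, 37° C. Cell protection measured as formazan from tetrazolium, A450. IC50: drug level restoring infected-cell formazan to 50% of the uninfected untreated control.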

Where [3] appears, read: pH 5.5, 10 μM inhibitor, 4% DMSO, 450 μM substrate, pH 5.5, 30 minutes at 37° C., RP-HPLC, read-out: HIV Protease % Inhibition at 10 μM.

Where two headings read alike, the source gives them in different places.

`CC(C)(C)OC(=O)N[C@@H](Cc1ccccc1)[C@H](O)CNC[C@@H](O)[C@H](Cc1ccccc1)NC(=O)[C@@H](NC(=O)OCCOc1ccccc1)C(C)(C)C` [Compound 326, [S-[1R*,2S*(2S*,3R*)]]-[2,2-Dimethyl-1-[[[3-[[3-[[(1,1-dimethylethoxy)carbonyl]amino]-2-hydroxy-4-phenylbutyl]amino]-2-hydroxy-1-(phenylmethyl)propyl]amino]carbonyl]propyl]carbamic acid, (2-(phenyloxy)ethyl ester]: the inhibition at 10 µM in experiment [1] (setting [3]) stood at 99%. In addition, in experiment [2], the IC50 came out at 30 nM.
`CC(C)(C)OC(=O)N[C@@H](Cc1ccccc1)[C@H](O)CNC[C@@H](O)[C@H](Cc1ccccc1)NC(=O)C(NC(=O)OCc1ccccc1)C(F)(F)F` (stereo partly drawn) [Compound 328, [1S-[1R*,2S*(2S*,3R*)]]-[2-[[3-[[3-[[(1,1-Dimethylethoxy)carbonyl]amino]-2-hydroxy-4-phenylbutyl]amino]-2-hydroxy-1-(phenylmethyl)propyl]amino]-2-oxo-1-(trifluoromethyl)ethyl]carbamic acid, phenylmethyl ester]: the inhibition at 10 µM in experiment [1] (setting [3]) stood at 99%. Further, the IC50 in experiment [2] was 540 nM.
The corresponding values for `CC(C)(C)OC(=O)N[C@@H](Cc1ccccc1)[C@H](O)CNC[C@@H](O)[C@H](Cc1ccccc1)NC(=O)C1(O)CCOC1` (stereo partly drawn) [Compound 330, [1S-[1R*,2S*(2S*,3R*)]]-[2-hydroxy-3-[[2-hydroxy-3-[[(tetrahydro-3-hydroxy-3-furanyl)carbonyl]amino]-4-phenylbutyl]amino]-1-(phenylmethyl)propyl]carbamic acid, 1,1-dimethylethyl ester] are 92% and 850 nM.
Turning to `CC(C)(C)OC(=O)N[C@@H](Cc1ccccc1)[C@H](O)CNC[C@@H](O)[C@H](Cc1ccccc1)NC(=O)O[C@H]1CCOC1` [Compound 331, [1S-(1R*,2S*,3R*)]-[Iminobis[2-hydroxy-1-(phenylmethyl)-3,1-propanediyl]]bis[carbamic acid], 3-tetrahydrofuranyl 1,1-dimethylethyl ester], in experiment [1] (setting [3]), the inhibition at 10 µM amounted to 99%. Also, the IC50 in experiment [2] was 60 nM.
As for `CC(C)(C)OC(=O)N[C@@H](Cc1ccccc1)[C@H](O)CNC[C@@H](O)[C@H](Cc1ccc(OCC(=O)N2CCCCC2)cc1)NC(=O)OC(C)(C)C` [Compound 332], the inhibition at 10 µM in experiment [1] (pH 5.5, read-out: HIV Protease % Inhibition at 10 μM) is 100%. In addition, the IC50 in experiment [2] came to 70 nM.
Take `CC(C)(CO)OC(=O)N[C@@H](Cc1ccccc1)[C@H](O)CNC[C@@H](O)[C@H](Cc1ccccc1)NC(=O)[C@](C)(O)C(C)(C)C` [Compound 333, [1S-[1R*,2S*[2S*3R*(S*)]]]-[3-[[3-[(2-Hydroxy-2,3,3-trimethyl-1-oxobutyl)amino]-2-hydroxy-4-phenylbutyl]amino-2-hydroxy-1-(phenylmethyl)propyl]carbamic acid, 2-hydroxy-1,1-dimethylethyl ester]: in experiment [1] (setting [3]), the inhibition at 10 µM came out at 100%. Besides, the IC50 in experiment [2] is 150 nM.
Turning to `CC(C)(C)OC(=O)N[C@@H](Cc1ccccc1)[C@H](O)CNC[C@@H](O)[C@H](Cc1ccccc1)NC(=O)[C@H](O)C(C)(C)C` [Compound 334, [1S-[1R*,2S*[2S*,3R*(S*)]]]-[3-[[3-[(2-Hydroxy-3,3-dimethyl-1-oxobutyl)amino]-2-hydroxy-4-phenylbutyl]amino]-2-hydroxy-1-(phenylmethyl)propyl]carbamic acid, 1,1-dimethylethyl ester], in experiment [1] (setting [3]), the inhibition at 10 µM worked out at 99%. Besides, the IC50 in experiment [2] was 50 nM.
In the case of `O=C(N[C@@H](Cc1ccccc1)[C@H](O)CNC[C@@H](O)[C@H](Cc1ccccc1)NC(=O)O[C@H]1CCOC1)O[C@H]1CCOC1` [Compound 338, [1S-(1R*,2S*), (R*)]-[Iminobis[2-hydroxy-1-(phenylmethyl)-3,1-propanediyl]]bis[carbamic acid], bis(3-tetrahydrofuranyl)ester], in experiment [1] (setting [3]), the inhibition at 10 µM is 99%. Besides, in experiment [2], the concentration for half-maximal inhibition (IC50) was 930 nM.
The corresponding values for `CC(C)(C)OC(=O)N[C@@H](Cc1ccccc1)[C@H](O)CNC[C@@H](O)[C@H](Cc1ccccc1)NC(=O)[C@@H](NC(=O)OCc1cc2ccncc2o1)C(C)(C)C` [Compound 339, [S-[1R*,2S*(2S*,3R*)]]-[2,2-Dimethyl-1-[[[3-[[3-[[(1,1-dimethylethoxy)carbonyl]amino]-2-hydroxy-4-phenylbutyl]amino]-2-hydroxy-1-(phenylmethyl)-propyl]amino]carbonyl]propyl]carbamic acid, (2-furo[2,3-c]pyridinyl) methyl ester] are 99% and 12 nM.
`CC(C)(C)OC(=O)N[C@@H](Cc1ccccc1)[C@H](O)CNC[C@@H](O)[C@H](Cc1ccc(OCCN2CCOC2=O)cc1)NC(=O)OC(C)(C)C` [Compound 343, [1S-[1R*,2S*(2S*,3R*)]]-[1-[[[3-[[(1,1-Dimethylethoxy)carbonyl]amino]-2-hydroxy-4-[4-[2-(2-oxo-3-oxazolidinyl)ethoxy]phenyl]butyl]amino]-2-hydroxy-1-(phenylmethyl)propyl]carbamic acid, 1,1-dimethylethyl ester]: in experiment [1] (setting [3]), the inhibition at 10 µM is 99%. In addition, the IC50 in experiment [2] worked out at 50 nM.
In the case of `CC(C)(C)[C@@](C)(O)C(=O)N[C@@H](Cc1ccccc1)[C@H](O)CNC[C@@H](O)[C@H](Cc1ccccc1)NC(=O)[C@](C)(O)C(C)(C)C` [Compound 344, [2R-[R*(R*,S*)]]-N,N'-[Iminobis[2-hydroxy-l-(phenylmethyl)-3,1-propanediyl]]bis[2-hydroxy-2,3,3-trimethylbutaneamide]], the inhibition at 10 µM in experiment [1] (setting [3]) was found to be 99%. Besides, in experiment [2], the IC50 came out at 30 nM.
For the compound `CC(C)(C)OC(=O)N[C@@H](Cc1ccccc1)[C@H](O)CNC[C@@H](O)[C@H](Cc1ccccc1)NC(=O)[C@@H](NC(=O)OCc1nc(-c2ccccc2)co1)C(C)(C)C` [Compound 345, [S-(1R*,2S*(2S*,3R*)]]-[2,2-Dimethyl-1-[[[3-[[3-[[1,1-dimethylethoxy)-carbonyl]amino]-2-hydroxy-4-phenylbutyl]amino]-2-hydroxy-1-(phenylmethyl)propyl]amino]-carbonyl]propyl]carbamic acid, (4-phenyl-2-oxazolyl)methyl ester], in experiment [1] (setting [3]), the inhibition at 10 µM came out at 99%. The IC50 in experiment [2] was found to be 330 nM.
`CC(C)(C)OC(=O)N[C@@H](Cc1ccccc1)[C@H](O)CNC[C@@H](O)[C@H](Cc1ccc(OCC(=O)O)cc1)NC(=O)OC(C)(C)C` [Compound 346, [1S-[1R*,2S*(2S*,3R*)]-[4-[4-(Carboxymethoxy)phenyl)-3-[[3-[[1,1-dimethylethoxy)carbonyl]amino]-2-hydroxy-1-(phenylmeyhyl)propyl)carbamic acid, 1, 1dimethylethyl ester]: the inhibition at 10 µM in experiment [1] (setting [3]) was determined as 98%. In addition, the half-maximal inhibitory concentration (IC50) in experiment [2] was over 50000 nM.
The like results for `CC(C)(C)OC(=O)N[C@@H](Cc1ccccc1)[C@H](O)CNC[C@@H](O)[C@H](Cc1ccccc1)NC(=O)[C@@H](NC(=O)OCc1ncc(-c2ccccc2)o1)C(C)(C)C` [Compound 347, [S-(1R*,2S*(2S*,3R*)]]-[2,2-Dimethyl-1-[[[3-[[3-[[1,1-dimethylethoxy)-carbonyl]amino]-2-hydroxy-4-phenylbutyl]amino]-2-hydroxy-1-(phenylmethyl)propyl]amino]carbonyl]-propyl]carbamic acid, (5-phenyl-2-oxazolyl)methyl ester] were, in that order, 99% and 50 nM.

A word on the inhibition: it is the drop in the measured response relative to a control, in per cent. A word on the IC50: it is the midpoint of a concentration-inhibition curve.
